# Assay results from paper PMC3509132, “Global Epigenetic Changes Induced by SWI2/SNF2 Inhibitors Characterize Neomycin-Resistant Mammalian Cells” (PLoS ONE, 2012).
# Like-named read-outs stand apart in the source and are kept apart here.
# T1: ADAAD (Bos taurus, UniProt Q9TTA5)
# T1 sequence (Q9TTA5 229-940 limits assumed): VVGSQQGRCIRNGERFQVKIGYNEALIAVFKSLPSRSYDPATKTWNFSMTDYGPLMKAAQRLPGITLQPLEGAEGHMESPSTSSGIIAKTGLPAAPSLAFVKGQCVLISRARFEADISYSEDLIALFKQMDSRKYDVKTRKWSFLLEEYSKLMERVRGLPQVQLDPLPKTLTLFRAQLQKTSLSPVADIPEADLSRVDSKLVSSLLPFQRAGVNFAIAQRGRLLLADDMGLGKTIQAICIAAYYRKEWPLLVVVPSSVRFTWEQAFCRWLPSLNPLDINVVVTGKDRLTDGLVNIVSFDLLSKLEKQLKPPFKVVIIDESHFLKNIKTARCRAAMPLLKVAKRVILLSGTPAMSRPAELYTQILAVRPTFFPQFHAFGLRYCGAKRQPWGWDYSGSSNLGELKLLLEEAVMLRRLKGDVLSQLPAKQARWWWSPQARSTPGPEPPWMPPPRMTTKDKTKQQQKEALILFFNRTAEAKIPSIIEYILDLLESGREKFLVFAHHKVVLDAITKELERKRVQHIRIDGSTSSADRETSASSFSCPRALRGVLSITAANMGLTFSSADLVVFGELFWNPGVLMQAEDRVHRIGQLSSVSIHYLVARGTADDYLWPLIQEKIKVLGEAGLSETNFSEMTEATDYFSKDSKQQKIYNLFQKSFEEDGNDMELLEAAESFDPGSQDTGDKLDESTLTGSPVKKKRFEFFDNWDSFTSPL
# T2: MAD33 (UniProt Q9TTA5)
# T2 sequence (Q9TTA5 whole entry, looked up): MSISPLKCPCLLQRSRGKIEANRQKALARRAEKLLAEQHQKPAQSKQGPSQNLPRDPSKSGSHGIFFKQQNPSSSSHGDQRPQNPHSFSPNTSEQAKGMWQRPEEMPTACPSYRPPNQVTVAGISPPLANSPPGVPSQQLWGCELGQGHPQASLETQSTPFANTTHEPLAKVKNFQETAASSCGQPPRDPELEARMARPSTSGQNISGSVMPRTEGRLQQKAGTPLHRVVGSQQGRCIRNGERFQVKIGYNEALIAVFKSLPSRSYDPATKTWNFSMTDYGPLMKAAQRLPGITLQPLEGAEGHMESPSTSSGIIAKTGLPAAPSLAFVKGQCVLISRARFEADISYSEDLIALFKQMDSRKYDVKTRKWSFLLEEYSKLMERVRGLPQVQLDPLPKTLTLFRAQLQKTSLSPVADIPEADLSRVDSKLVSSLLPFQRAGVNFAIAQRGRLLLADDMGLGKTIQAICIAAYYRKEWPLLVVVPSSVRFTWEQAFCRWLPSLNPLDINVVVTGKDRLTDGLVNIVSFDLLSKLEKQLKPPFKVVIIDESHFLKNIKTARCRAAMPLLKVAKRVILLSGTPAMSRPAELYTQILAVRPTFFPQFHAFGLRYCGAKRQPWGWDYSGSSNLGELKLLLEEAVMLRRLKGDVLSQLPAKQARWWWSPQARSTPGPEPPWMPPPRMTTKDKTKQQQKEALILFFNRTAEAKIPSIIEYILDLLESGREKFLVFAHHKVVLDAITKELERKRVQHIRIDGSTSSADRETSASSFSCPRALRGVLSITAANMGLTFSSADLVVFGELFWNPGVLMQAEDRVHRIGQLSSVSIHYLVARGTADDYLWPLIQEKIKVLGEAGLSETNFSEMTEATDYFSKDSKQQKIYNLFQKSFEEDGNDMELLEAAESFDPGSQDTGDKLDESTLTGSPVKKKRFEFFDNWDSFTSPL
# T3: His-ADAAD (Active DNA-dependent ATPase A Domain) (UniProt Q9TTA5)
# T3 sequence (Q9TTA5 whole entry, looked up): T2 sequence (Q9TTA5 whole entry, looked up)
# T4: MAD47 (UniProt Q9TTA5)
# T4 sequence (Q9TTA5 whole entry, looked up): T2 sequence (Q9TTA5 whole entry, looked up)
# T5: MAD8 (UniProt Q9TTA5)
# T5 sequence (Q9TTA5 whole entry, looked up): T2 sequence (Q9TTA5 whole entry, looked up)
# T6: MAD53 (UniProt Q9TTA5)
# T6 sequence (Q9TTA5 whole entry, looked up): T2 sequence (Q9TTA5 whole entry, looked up)
# T7: MAD28 (UniProt Q9TTA5)
# T7 sequence (Q9TTA5 whole entry, looked up): T2 sequence (Q9TTA5 whole entry, looked up)
# T8: MAD8 (ADAAD deletion construct; motif Ia) (Bos taurus, UniProt Q9TTA5)
# T8 sequence (Q9TTA5 465-535): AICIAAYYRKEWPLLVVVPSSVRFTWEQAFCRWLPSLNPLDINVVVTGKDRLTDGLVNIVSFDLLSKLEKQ
# T9: MAD 47 (ADAAD deletion construct; motifs Q, I, Ia, II, III) (Bos taurus, UniProt Q9TTA5)
# T9 sequence (Q9TTA5 211-635): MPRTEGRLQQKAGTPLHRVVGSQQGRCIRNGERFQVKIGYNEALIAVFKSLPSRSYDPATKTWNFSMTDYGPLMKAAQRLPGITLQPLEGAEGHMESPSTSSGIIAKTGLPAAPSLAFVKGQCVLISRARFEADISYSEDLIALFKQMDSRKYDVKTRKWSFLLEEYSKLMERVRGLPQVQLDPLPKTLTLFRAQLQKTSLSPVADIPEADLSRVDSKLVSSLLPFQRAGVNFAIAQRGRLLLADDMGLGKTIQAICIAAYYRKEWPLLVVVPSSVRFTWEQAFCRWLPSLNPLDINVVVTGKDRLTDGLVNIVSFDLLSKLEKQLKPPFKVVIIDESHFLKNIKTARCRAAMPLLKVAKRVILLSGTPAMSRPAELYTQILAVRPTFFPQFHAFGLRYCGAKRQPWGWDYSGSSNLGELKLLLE
# T10: MAD 33 (ADAAD deletion construct; motifs Q, I, Ia) (Bos taurus, UniProt Q9TTA5)
# T10 sequence (Q9TTA5 211-507): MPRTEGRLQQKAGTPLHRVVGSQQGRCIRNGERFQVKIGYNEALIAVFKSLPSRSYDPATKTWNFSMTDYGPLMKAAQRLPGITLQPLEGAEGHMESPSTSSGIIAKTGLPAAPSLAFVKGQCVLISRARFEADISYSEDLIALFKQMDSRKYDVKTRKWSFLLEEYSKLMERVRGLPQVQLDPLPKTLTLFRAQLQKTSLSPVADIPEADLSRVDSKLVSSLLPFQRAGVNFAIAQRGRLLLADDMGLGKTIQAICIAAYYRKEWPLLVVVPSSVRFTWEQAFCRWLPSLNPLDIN
# T11: MAD 53 (ADAAD deletion construct; motifs Ia, II, III, IV, V, VI) (Bos taurus, UniProt Q9TTA5)
# T11 sequence (Q9TTA5 465-940): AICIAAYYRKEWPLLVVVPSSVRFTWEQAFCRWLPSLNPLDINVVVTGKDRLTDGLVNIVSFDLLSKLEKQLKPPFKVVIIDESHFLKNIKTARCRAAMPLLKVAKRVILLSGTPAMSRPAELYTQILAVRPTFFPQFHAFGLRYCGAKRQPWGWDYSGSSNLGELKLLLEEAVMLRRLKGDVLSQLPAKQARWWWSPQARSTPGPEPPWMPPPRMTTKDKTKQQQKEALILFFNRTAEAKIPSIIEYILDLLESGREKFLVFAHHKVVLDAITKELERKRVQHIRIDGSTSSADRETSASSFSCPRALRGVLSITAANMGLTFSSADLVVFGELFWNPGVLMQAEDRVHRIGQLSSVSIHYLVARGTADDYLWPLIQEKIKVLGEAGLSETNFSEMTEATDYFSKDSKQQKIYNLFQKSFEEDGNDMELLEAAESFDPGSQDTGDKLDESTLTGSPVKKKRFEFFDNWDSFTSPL
# T12: ADAAD wild type (GST cleaved) (UniProt Q9TTA5 229-940)
# T12 sequence: T1 sequence (Q9TTA5 229-940 limits assumed)
# Key:
# ADAAD [1] = molecular target: T1, ADAAD; assay: Intrinsic tryptophan fluorescence quenching binding titration with His-ADAAD
# Method: (§1) His-ADAAD, used for binding studies, was purified as described previously. For mapping and CD studies, ADAAD as well as deletion constructs were expressed as GST-fusion protein in BL21 (DE3) cells and purified as described previously. In case of deletion constructs the GST-tag was not cleaved as the resultant proteins were not stable.
# (§2) Fluorescence was measured at 25°C using Cary-Varian spectrofluorimeter as described previously. Stem-loop DNA (5′- […]-3′), synthesized by Sigma-Aldrich, was used in these studies. The intrinsic fluorescence quenching data obtained with acrylamide was analyzed using Stern-Volmer plots as described previously, [14].
# To understand the interaction of ADAADi with ADAAD, a member of the SWI2/SNF2 family, we synthesized ADAADi using kanamycin and neomycin. These derivatives, ADAADiK and ADAADiN respectively, were purified and titrated with protein while monitoring the quenching of the intrinsic tryptophan fluorescence. […] This binding constant was same as that in the absence of ATP and slDNA. A similar result was obtained with ADAADiK (Figure S3A and S3B; Table 1). We thus conclude that the interaction of the inhibitor with ADAAD is independent of these two ligands.
# ADAAD [2] = molecular target: T1, ADAAD; conditions: ADAAD alone; His-ADAAD; ref Nongkhlaw et al. (Nongkhlaw, 2009); cited from earlier work
# MAD33 = molecular target: T2, MAD33; assay: intrinsic tryptophan fluorescence quenching; conditions: Fluorescence at 25 C (Cary-Varian spectrofluorimeter); buffer, salt and pH not given (as in ref 13)
# [3] = molecular target: T3, His-ADAAD (Active DNA-dependent ATPase A Domain); assay: intrinsic tryptophan fluorescence quenching; conditions: Fluorescence at 25 C (Cary-Varian spectrofluorimeter), buffer, salt and pH not given (as in ref 13)
# MAD47 = molecular target: T4, MAD47; assay: intrinsic tryptophan fluorescence quenching; conditions: Fluorescence at 25 C (Cary-Varian spectrofluorimeter); buffer, salt and pH not given (as in ref 13)
# MAD8 = molecular target: T5, MAD8; assay: intrinsic tryptophan fluorescence quenching; conditions: Fluorescence at 25 C (Cary-Varian spectrofluorimeter); buffer, salt and pH not given (as in ref 13)
# MAD53 = molecular target: T6, MAD53; assay: intrinsic tryptophan fluorescence quenching; conditions: Fluorescence at 25 C (Cary-Varian spectrofluorimeter); buffer, salt and pH not given (as in ref 13)
# MAD28 = molecular target: T7, MAD28; assay: intrinsic tryptophan fluorescence quenching; conditions: Fluorescence at 25 C (Cary-Varian spectrofluorimeter); buffer, salt and pH not given (as in ref 13)
# [4] = system: MAD28 (ADAAD deletion construct; motifs Q, I); assay: Fluorescence binding titration, deletion construct MAD28; conditions: GST fusion
# Method: as §1, §2
# [5] = molecular target: T8, MAD8 (ADAAD deletion construct; motif Ia); assay: Fluorescence binding titration, deletion construct MAD8; conditions: GST fusion
# Method: as §1, §2
# [6] = molecular target: T9, MAD 47 (ADAAD deletion construct; motifs Q, I, Ia, II, III); assay: Fluorescence binding titration, deletion construct MAD47
# Method: as §1, §2
# (§3) ADAAD contains the conserved helicase motifs (Table 2). Three deletion constructs of ADAAD-MAD47, MAD33, and MAD53-lacking DNA-dependent ATPase activity were used to delineate the interaction region (Table 2). The Kd values for the interaction of ADAADiN with MAD47 and MAD 33 were similar to that of wild type leading to the conclusion that motifs Q, I, and Ia are sufficient for the ADAADi-ADAAD interaction. In contrast, these three motifs are not sufficient for the slDNA-ADAAD interaction (Table 2). […]
# [7] = molecular target: T10, MAD 33 (ADAAD deletion construct; motifs Q, I, Ia); assay: Fluorescence binding titration, deletion construct MAD33; conditions: GST fusion
# Method: as §1, §2, §3
# [8] = molecular target: T11, MAD 53 (ADAAD deletion construct; motifs Ia, II, III, IV, V, VI); assay: Fluorescence binding titration, deletion construct MAD53; conditions: GST fusion
# Method: as §1, §2, §3
# [9] = molecular target: T12, ADAAD wild type (GST cleaved); assay: intrinsic tryptophan fluorescence quenching; Fluorescence at 25 C (Cary-Varian spectrofluorimeter); buffer, salt and pH not given (as in ref 13); conditions: protein: recombinant; tags: none (GST removed with PreScission); hairpin
molecule,measurement,setting,value
Nc1ncnc2c1ncn2[C@@H]1O[C@H](COP(=O)(O)OP(=O)(O)OP(=O)(O)O)[C@@H](O)[C@H]1O [ATP],Kd,ADAAD [1],100 ± 3 nM
same,fold higher affinity than in the absence of the inhibitor,ADAAD [1]; in the presence of ADAADiK,10 fold
same,fold higher affinity than in the absence of the inhibitor,ADAAD [1]; in the presence of ADAADiN,10 fold
same,Kd,ADAAD [2],1600 nM
GCGCAATTGCGCTCGACGATTTTTTAGCGCAATTGCGC [slDNA (stem-loop DNA)],Kd,MAD33,41.5 nM
same,Kd,[3]; 2 uM ADAADiK,0.46 nM
same,Kd,[3]; 2 uM ADAADiN (saturating inhibitor),0.63 nM
same,Kd,MAD47,6.5 nM
same,Kd,MAD8,8.7 nM
same,Kd,MAD53,8.2 nM
same,Kd,MAD28,22.1 nM
"slDNA: Stem-loop DNA (5′- GCGCAATTGCGCTCGACGATTTTTTAGCGCAATTGCGC-3′), a well-characterized DNA effector of ADAAD (DNA, backbone and methylation of C not given here; stem-loop DNA)",Kd,"ADAAD [1]; ADAAD + ADAADiK (2 μM ADAADiK), His-ADAAD, read-out: Kd",0.46 nM
same,Kd,"ADAAD [1]; ADAAD + ADAADiN (saturated with 2 μM ADAADiN), His-ADAAD, read-out: Kd",0.63 nM
same,Kd,ADAAD [2],19.9 nM
same,Kd,[4],22.1 nM
same,Kd,[5],8.7 nM
same,Kd,[6],6.5 nM
same,Kd,[7],41.5 nM
same,Kd,[8],8.2 nM
GCGCAATTGCGCTCGACGATTTTTTAGCGCAATTGCGC (structured_DNA) [slDNA (stem-loop DNA)],Kd,[9],3.8 ± 1.1 nM
